Data taken from patent US20060019907A1, “Guggulsterone: an inhibitor of nuclear factor - kappaB and IkappaBalpha kinase activation and uses thereof” (Research Development Foundation, priority 2004, published 2006).

How the values were obtained:
U937 cells = assay: Cytotoxicity (MTT uptake) of guggulsterone with JNK inhibitor; assay type: cell-based, human; settings: 72 h
Description: Cytotoxicity assay. The cytotoxic effects of guggulsterone was determined by the MTT uptake method. Briefly, 5000 cells were incubated with guggulsterone in triplicate in a 96-well plate at 37° C. MTT solution was then added to each well. After a 2-h incubation at 37° C., extraction buffer (20% SDS, 50% dimethylformamide) was added, the cells were incubated overnight at 37° C., and the OD was then measured at 570 nm using a 96-well multiscanner (Dynex Technologies, MRX Revelation, Chantilly, Va.).

[1] = target: NF-κB p65 subunit (RelA) in nuclear extracts of TNF-treated human H1299 cells (human, UniProt Q04206 1-551); assay: EMSA supershift assay, nuclear extracts of TNF-treated H1299 cells
Chain of NF-κB p65 subunit (RelA) in nuclear extracts of TNF-treated human H1299 cells (Q04206 whole entry): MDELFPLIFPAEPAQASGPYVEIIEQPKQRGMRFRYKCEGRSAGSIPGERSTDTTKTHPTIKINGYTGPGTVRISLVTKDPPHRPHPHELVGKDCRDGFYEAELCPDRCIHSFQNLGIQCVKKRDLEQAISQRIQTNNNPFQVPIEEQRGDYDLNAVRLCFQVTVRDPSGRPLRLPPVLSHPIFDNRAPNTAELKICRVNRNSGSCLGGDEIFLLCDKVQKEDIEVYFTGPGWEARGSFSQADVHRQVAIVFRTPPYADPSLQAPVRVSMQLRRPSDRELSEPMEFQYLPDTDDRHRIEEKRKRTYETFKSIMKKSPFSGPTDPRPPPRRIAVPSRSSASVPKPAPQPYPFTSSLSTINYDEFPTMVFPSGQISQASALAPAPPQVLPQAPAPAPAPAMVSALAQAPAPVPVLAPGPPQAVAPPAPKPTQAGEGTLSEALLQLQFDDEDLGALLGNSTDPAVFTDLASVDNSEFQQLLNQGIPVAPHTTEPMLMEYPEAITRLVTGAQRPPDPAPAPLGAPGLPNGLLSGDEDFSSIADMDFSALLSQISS
Description: Nuclear extracts were prepared and tested for NF-κB activation. […] H1299 cells (2×10⁶/ml) were pre-incubated with 50 μM guggulsterone for the indicated times at 37° C. and then treated with 0.1 nM TNF for 30 min at 37° C. Nuclear extracts were prepared and then tested for NF-κB activation. […] Nuclear extracts from H1299 cells (2×10⁶/ml) treated or not treated with 0.1 nM TNF for 30 min were incubated with the antibodies indicated for 30 min at room temperature, and the complex was analyzed by supershift assay. […] Nuclear extracts from H1299 cells (2×10⁶/ml) treated or not treated with 0.1 nM TNF for 30 min were treated with the indicated concentrations of guggulsterone for 4 hours at room temperature and then assayed for DNA binding by EMSA.
NF-κB Activation: To determine NF-κB activation, EMSA was carried out as previously described (Chaturvedi et al., 2000). […] For supershift assays, nuclear extracts prepared from TNF-treated cells were incubated with antibodies against either the p50 or the p65 subunit of NF-κB for 30 min at room temperature before the complex was analyzed by EMSA. The dried gels were visualized, and radioactive bands were quantitated using a PHOSPHORIMAGER™ (Molecular Dynamics, Sunnyvale, Calif.) using IMAGEQUANT™ software.

| binding result [1] | Molecule | guggulsterone induced cytotoxicity in combination with JNK inhibitor (U937 cells) |
| --- | --- | --- |
|  | Oc1c2ccccc2c2c3c(cccc13)N=N2 [SP600125] | blocks guggulsterone induced cytotoxicity |
| binds | NF-κB p50 subunit (NF-κB1) in nuclear extracts of TNF-treated human H1299 cells (other, UniProt P19838 1-433, looked up) MAEDDPYLGRPEQMFHLDPSLTHTIFNPEVFQPQMALPTDGPYLQILEQPKQRGFRFRYVCEGPSHGGLPGASSEKNKKSYPQVKICNYVGPAKVIVQLVTNGKNIHLHAHSLVGKHCEDGICTVTAGPKDMVVGFANLGILHVTKKKVFETLEARMTEACIRGYNPGLLVHPDLAYLQAEGGGDRQLGDREKELIRQAALQQTKEMDLSVVRLMFTAFLPDSTGSFTRRLEPVVSDAIYDSKAPNASNLKIVRMDRTAGCVTGGEEIYLLCDKVQKDDIQIRFYEEEENGGVWEGFGDFSPTDVHRQFAIVFKTPKYKDINITKPASVFVQLRRKSDLETSEPKPFLYYPEIKDKEEVQRKRQKLMPNFSDSFGGGSGAGAGGGGMFGSGGGGGGTGSTGPGYSFPHYGFPTYGGITFHPGTTKSNAGMKHG |  |
